Data from patent US11819576B2, “Process for preparing nano-or microparticles comprising a carrier-polymer and one or more biologically active ingredients” (Evonik Operations GmbH, priority 2019, dated 2023).
Values after ≈ are worked out from the molar mass of the structure shown.

Columns and labels:
[1] = physchem; conditions: 22 °C, organic solvent or mixture, thermodynamic from solid, Solubility in mg/ml
Procedure: 100 μl n-butanol was added and the dispersion was stirred at ˜300 to 500 rpm by a magnetic stirrer at 21-23° C. n-Butanol was added 10 μl wise.
100 μl water saturated n-butanol (achieved from example 4) was added and the dispersion was stirred at ˜300 to 500 rpm by a magnetic stirrer at 21-23° C. n-Butanol was added 10 μl wise.
100 μl 25% aqueous NaCl solution saturated n-butanol (achieved from example 6) was added and the dispersion was stirred at ˜300 to 500 rpm by a magnetic stirrer at 21-23° C. n-Butanol was added 10 μl wise.
31.35 mg efavirenz (Angene Intemational Limited, China) was weighed into a 10 ml glass vial containing a 1 cm magnetic bar. 50 μl n-butanol was added and the dispersion was stirred at ˜300 to 500 rpm by a magnetic stirrer at 21-23° C. n-Butanol was added 10 μl wise.
30.57 mg efavirenz was weighed into a 10 ml glass vial containing a 1 cm magnetic bar. 50 μl water saturated n-butanol (achieved from example 4) was added and the dispersion was stirred at ˜300 to 500 rpm by a magnetic stirrer at 21-23° C. Water saturated n-butanol was added 10 μl wise till 250 μl. After 250 μl, 25 μl wise addition was used.
31.35 mg efavirenz was weighed into a 10 ml glass vial containing a 1 cm magnetic bar. 50 μl 25% aqueous NaCl solution saturated n-butanol (achieved from example 6) was added and the dispersion was stirred at ˜300 to 500 rpm by a magnetic stirrer at 21-23° C. […]

[2] = Telmisartan release profile, dissolution test using USP II dissolution tester, acetate buffer pH 4.0, 2 h; format: physicochemical; conditions: acetate buffer pH 4.0, USP II
Procedure: FIG. 2), Telmisartan release profile was analyzed by a dissolution test using a USP II dissolution tester (ERWEKA GmbH, Langen, Germany) at pH 4.0 acetate buffer for 2 h (shown in […]

solubility [1] [mg/mL]	Release of Telmisartan ([2]; time 0 min) [%]	Release of Telmisartan ([2]; time 5 min) [%]	Release of Telmisartan ([2]; time 10 min) [%]	Release of Telmisartan ([2]; time 15 min) [%]	Release of Telmisartan ([2]; time 30 min) [%]	Release of Telmisartan ([2]; time 45 min) [%]	Release of Telmisartan ([2]; time 60 min) [%]	Release of Telmisartan ([2]; time 90 min) [%]	Release of Telmisartan ([2]; time 120 min) [%]	Structure (SMILES)
22 (≈ 57.7 mM)	–	–	–	–	–	–	–	–	–	Cc1ccc(-c2cc(C(F)(F)F)nn2-c2ccc(S(N)(=O)=O)cc2)cc1 [Celecoxib, celecoxib]
–	0.040	0.081	0.148	0.185	0.240	0.613	0.310	0.671	0.343	CCCc1nc2c(C)cc(-c3nc4ccccc4n3C)cc2n1Cc1ccc(-c2ccccc2C(=O)O)cc1 [Telmisartan pure active, Telmisartan]
